From article PMC4718940, “Preclinical studies of 5-fluoro-2′-deoxycytidine and tetrahydrouridine in pediatric brain tumors” (Journal of Neuro-Oncology, 2015)
Where two headings read alike, the source gives them in different places.

Tests used:
[1] = system: G3 MB (Myc1) cells; assay: FdCyd wash-out experiment, G3 MB; assay type: cell-based; conditions: Mus musculus
Description: (§1) Myc1 and Myc2 G3 MB, EP, and CPC tumor cells (Supplementary Table 1) were plated in 96-well plates. After 24 h, 128 nL of a dilution series of a selected drug was transferred creating a final drug concentration of 0.5–9.3 µM. To assess the optimal exposure time, the drug was removed and replaced with fresh medium after 1, 3, 6, 10, 24, or 72 h (“wash-out”).
(§2) In both experiments, 72 h after drug addition to cells, we added 100 µL of CellTiter-Glo reagent (Promega), and we read the luminescence signal. Data analysis used GraphPad Prism software (Version 5.04).

[2] = system: EP cells; assay: Effect of deoxycytidine on FdCyd efficacy, 72 h, CellTiter-Glo; assay type: cell-based; conditions: Mus musculus; FdCyd alone, 72 h exposure
Description: To test the effect of deoxycytidine on FdCyd efficacy, EP cells were plated in 96 well plates. After 24 h, FdCyd was added at final concentrations ranging from 0.1 nM to 50 μM alone or together with fixed concentration of deoxycytidine (Sigma) of 0.0122, 0.195, 6.25 or 100 μM.
as §2

[3] = In vitro plasma protein binding; assay type: in vitro ADME; conditions: data not shown, read-out: fu,p (unbound fraction, plasma protein)
[4] = system: Patient-derived xenograft of a human EP; assay: 72 h dose response, CellTiter-Glo, human EP PDX cells; assay type: cell-based; conditions: Fig. 2b
[5] = Cerebral microdialysis, tECF disposition in tumor-bearing CD1 nude mice; assay type: in vivo; conditions: mouse, tumor extracellular fluid (dialysate) vs plasma, FdCyd 6 mg/kg with THU 100 mg/kg, read-out: tECF-to-plasma partition coefficient of unbound FdCyd (Kpt,uu), mean ± SD
Description: Once a drug passed the Discovery Phase it was moved to the Pre-Clinical Phase, which included PK and PD studies (Fig. 1). The details of the plasma PK and cerebral microdialysis studies are provided in the Supplemental Materials.
Cerebral microdialysis studies were performed in CD1 nude mice orthotopically transplanted with G3 MB, EP, or CPC tumors [,2,6]. Plasma and dialysate samples collected during microdialysis studies were analyzed by using LC-MS/MS to determine drug concentrations. Data obtained from microdialysis performed in individual tumor models were analyzed separately by using a compartmental approach. A model with a tECF compartment that was linked to the plasma compartment by using efflux (CL32) and influx (CL23) clearances was fit to the plasma and tumor ECF concentration-time data. These were obtained from previous plasma PK studies in all tumor models and from each microdialysis by using separate, tumor-specific population NONMEM 7.2.
The tECF-to-plasma partition coefficient of unbound drug (Kpt,uu) was calculated as a ratio of CL23 to CL32. The mean ± SD of individual tECF-to-plasma partition coefficients of unbound FdCyd (Kpt,uu) in CD1 nude mice bearing G3 MB, EP, and CPC were 0.06 ± 0.02, 0.18 ± 0.14, and 0.09 ± 0.04, respectively. […] Inter-animal variability in Kpt,uu, however, was higher in EP tumors than in G3 MB and CPC tumors.The area under plasma concentration-time curve (AUCplasma) was calculated as the ratio of dosage to CL, whereas AUCtECF was calculated as the product of AUCplasma and Kpt,uu.

[6] = system: HEPG2 cells; assay: FdCyd growth inhibition, HEPG2 control cells; assay type: cell-based, human; conditions: Fig. 2c
[7] = system: EP tumors; assay: In vivo proliferation, Ki67 immunohistochemistry, EP
Description: (§3) To assess apoptosis and proliferation in vivo, G3 MB, EP, and CPC tumors were isolated from mice 3, 8, or 24 h after treatment with compound or vehicle, fixed in 10 % formalin, and sections were immunostained with antibodies to Caspase 3 (apoptosis) or Ki67 (proliferation).
(§4) In vivo apoptosis and proliferation were performed on G3 MB, EP, and CPC tumors isolated from mice 3, 8, or 24 hr after treatment with compound or vehicle (saline). Tumors were fixed in 10% formalin. Sections (4-micron) were immunostained with antibodies to Caspase 3 (CP229C, BioCare Medical, Concorde, CA) to detect apoptotic cells, or Ki67 (ThermoShandon, RM9106) to detect proliferation. The number of positive cells for each stain was normalized to the total number of cells.
(§5) Mice bearing G3 MB, EP, or CPC tumors were harvested 3, 8, or 24 hr after IP injection of vehicle (V) or FdCyd + THU (FdCyd). Fixed brains were sliced and stained for Ki67. The percentage of positive cells was calculated based on total number of cells.

[8] = In vitro brain homogenate binding; assay type: in vitro ADME; conditions: data not shown, read-out: fu,b (unbound fraction, brain homogenate)
[9] = system: G3 MB tumors; assay: In vivo proliferation, Ki67 immunohistochemistry, G3 MB
Description: as §3, §4, §5

[10] = system: CPC cells; assay: FdCyd wash-out experiment, CPC; assay type: cell-based; conditions: Mus musculus
Description: as §1, §2

[11] = system: mouse G3 MB tumorspheres (Myc1, Myc2); assay: In vitro apoptosis, Annexin V and DAPI FACS; assay type: cell-based; conditions: 4 nM FdCyd alone, 24, 48, 72 h, compared to DMSO-treated cells
Excerpt: See Supplementary Material for more details.
Tumors were fixed in 10% formalin.

[12] = system: Trp53−/−, Cdkn2c−/− neurospheres; assay: FdCyd growth inhibition, control neurospheres; assay type: cell-based, mouse; conditions: Fig. 2c
[13] = 1 h exposure then wash-out, read at 72 h, read-out: EC50 after 1 h FdCyd exposure
[14] = 72 h, wash-out, 1st of 4 values listed for the remaining time points (3, 6, 10, 24, 72 h), read-out: EC50, longer exposure
[15] = 72 h, wash-out, 2nd of 4 values listed for the remaining time points (3, 6, 10, 24, 72 h), read-out: EC50, longer exposure
[16] = 72 h, wash-out, 3rd of 4 values listed for the remaining time points (3, 6, 10, 24, 72 h), read-out: EC50, longer exposure
[17] = 72 h, wash-out, 4th of 4 values listed for the remaining time points (3, 6, 10, 24, 72 h), read-out: EC50, longer exposure

`Nc1nc(=O)n([C@H]2C[C@H](O)[C@@H](CO)O2)cc1F` [FdCyd, 5-fluoro-2′-deoxycytidine] gave an EC50 [1, 13] of 8 ± 2 nM, an EC50 [1, 14] of 5 nM and an EC50 [1, 15] of 4 nM. The EC50 [1, 16] was 2.3 nM, the EC50 [1, 17] was 1 nM and the EC50 [2] was 50 nM. The fraction unbound [3] was about 1, the EC50 [4] was 8.3 nM and the Kp ([5]; mice bearing CPC) was 0.09 ± 0.04. For the same compound, the Kp ([5]; mice bearing EP) was 0.18 ± 0.14, the Kp ([5]; mice bearing G3 MB) was 0.06 ± 0.02 and the “sensitivity to FdCyd (growth inhibition)” value [6] was “not”. For the same compound, the “Ki67 % of positive cells” value ([7]; 3 hr after IP injection of FdCyd + THU, vehicle 81.79) was 77.06%, the “Ki67 % of positive cells” value ([7]; 8 hr after IP injection of FdCyd + THU, vehicle 80.10) was 72.88% and the “Ki67 % of positive cells” value ([7]; 24 hr after IP injection of FdCyd + THU, vehicle 68.41) was 72.62%. The fraction unbound [8] was about 1, the “Ki67 % of positive cells” value ([9]; 3 hr after IP injection of FdCyd + THU, vehicle 87.77) was 84.97% and the “Ki67 % of positive cells” value ([9]; 8 hr after IP injection of FdCyd + THU, vehicle 78.11) was 76.50%. The “Ki67 % of positive cells” value ([9]; 24 hr after IP injection of FdCyd + THU, vehicle 85.15) was 77.15%, the EC50 [10, 13] was 63 ± 28 nM and the EC50 [10, 14] was 58 nM. For the same compound, the EC50 [10, 15] was 44 nM, the EC50 [10, 16] was 31 nM and the EC50 [10, 17] was 1 nM. For the same compound, the “number of apoptotic cells (Annexin V)” value [11] was “increased” and the “sensitivity to FdCyd (growth inhibition)” value [12] was “showed sensitivity”.
